Measured values as given in patent US9944678B2, “Immunomodulators” (BRISTOL-MYERS SQUIBB COMPANY, priority 2014, dated 2018).
Starred links: 1 amine or outer side, 2 acyl side, 3 side chain; linkers in the order of their positions; H or OH if unused. Positions of bridges follow the written chain, without caps; N, C: chain ends. Non-standard residues stand in square brackets, D forms with d. Residues, ends and D or L forms follow the SMILES beside them. ξ: configuration not given here. X2 = CC[C@H]1C[C@@]1(N[*:1])C(=O)[*:2]; X4 = C[C@H]1C[C@@]1(N[*:1])C(=O)[*:2]; Bta = N[C@@H](Cc1csc2ccccc12)C(=O)O; X3 = C[C@H]1CC1(N[*:1])C(=O)[*:2]; Hyp = O=C(O)[C@@H]1C[C@@H](O)CN1; NMeNle = CCCC[C@H](NC)C(=O)O; NMeA = CN[C@@H](C)C(=O)O; ξC = NC(CS)C(=O)O

Assays:
[1] = target: T1, PD-1-Ig binding to PD-L1-TVMV-His (PD-L1-His) (Homo sapiens, UniProt Q9NZQ7); experiment: PD-1/PD-L1 Homogenous Time-Resolved Fluorescence (HTRF) binding assay; conditions: PD-1-Ig/PD-L1-His binding
T1 construct: hPDL1(19-239)-TVMV-His; TVMV protease cleavage site (C); made in house; host or cells: HEK293T cells
T1 sequence (Q9NZQ7 with tags, fused parts or gaps): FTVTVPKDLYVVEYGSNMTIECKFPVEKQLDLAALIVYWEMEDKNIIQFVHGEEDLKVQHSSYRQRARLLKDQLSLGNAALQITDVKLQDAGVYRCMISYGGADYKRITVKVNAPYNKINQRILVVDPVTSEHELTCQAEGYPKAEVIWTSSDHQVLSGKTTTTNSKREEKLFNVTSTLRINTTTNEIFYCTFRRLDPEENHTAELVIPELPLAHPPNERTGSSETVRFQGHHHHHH
Excerpt: The ability of the macrocyclic peptides of the present disclosure to bind to PD-L1 was investigated using a PD-1/PD-L1 Homogenous Time-Resolved Fluorescence (HTRF) binding assay.
Homogenous Time-Resolved Fluorescence (HTRF) Assays of Binding of Soluble PD-1 to Soluble PD-L1. Soluble PD-1 and soluble PD-L1 refers to proteins with carboxyl-end truncations that remove the transmembrane-spanning regions and are fused to heterologous sequences, specifically the Fc portion of the human immunoglobuling G sequence (Ig) or the hexahistidine epitope tag (His). All binding studies were performed in an HTRF assay buffer consisting of dPBS supplemented with 0.1% (w/v) bovine serum albumin and 0.05% (v/v) Tween-20. For the PD-1-Ig/PD-L1-His binding assay, inhibitors were pre-incubated with PD-L1-His (10 nM final) for 15 m in 4 μl of assay buffer, followed by addition of PD-1-Ig (20 nM final) in 1 μl of assay buffer and further incubation for 15 m. PD-L1 fusion proteins from either human, cynomologous macaques, mouse, or other species were used. HTRF detection was achieved using europium crypate-labeled anti-Ig monoclonal antibody (1 nM final) and allophycocyanin (APC) labeled anti-His monoclonal antibody (20 nM final). Antibodies were diluted in HTRF detection buffer and 5 μl was dispensed on top of binding reaction. The reaction was allowed to equilibrate for 30 minutes and signal (665 nm/620 nm ratio) was obtained using an EnVision fluorometer. Additional binding assays were established between PD-1-Ig/PD-L2-His (20 and 5 nM, respectively), CD80-His/PD-L1-Ig (100 and 10 nM, respectively) and CD80-His/CTLA4-Ig (10 and 5 nM, respectively). Binding/competition studies between biotinylated Compound No. 71 and human PD-L1-His were performed as follows. Macrocyclic peptide inhibitors were pre-incubated with PD-L1-His (10 nM final) for 60 minutes in 4 μl of assay buffer followed by addition of biotinylated Compound No. 71 (0.5 nM final) in 1 μl of assay buffer. Binding was allowed to equilibrate for 30 minutes followed by addition of europium crypated labeled Streptavidin (2.5 pM final) and APC-labeled anti-His (20 nM final) in 5 μl of HTRF buffer. The reaction was allowed to equilibrate for 30 m and signal (665 nm/620 nm ratio) was obtained using an EnVision fluorometer.
Recombinant Proteins. Carboxyl-truncated human PD-1 (amino acids 25-167) with a C-terminal human Ig epitope tag [hPD-1 (25-167)-3S-IG] and human PD-L1 (amino acids 18-239) with a C-terminal His epitope tag [hPD-L1(19-239)-tobacco vein mottling virus protease cleavage site (TVMV)-His] were expressed in HEK293T cells and purified sequentially by recombinant Protein A affinity chromatography and size exclusion chromatography. Human PD-L2-His (Sino Biologicals), CD80-His (Sino Biologicals), CTLA4-Ig (RnD Systems) were all obtained through commercial sources.
Ranges are as follows: A=0.10-10 μM; B=0.01-0.099 μM; C=0.004-0.0099 μM.

[2] = oral formulation ENTOCORT EC, extensive first-pass metabolism; cited from earlier work

| Structure (SMILES) | IC50 ([1]; values given as range classes) | also measured |
| --- | --- | --- |
| CCCC[C@H]1C(=O)N(C)[C@@H](CCCC)C(=O)N[C@@H](CCCNC(=N)N)C(=O)NC(C(=O)NCC(N)=O)CSCC(=O)N[C@@H](Cc2ccc(O)cc2)C(=O)N(C)[C@@H](C)C(=O)N[C@@H](CC(N)=O)C(=O)N[C@]2(C[C@@H]2C)C(=O)N[C@@H](Cc2cnc[nH]2)C(=O)N[C@@H](CC(C)C)C(=O)N2CCC[C@H]2C(=O)N[C@@H](Cc2c[nH]c3ccccc23)C(=O)N[C@@H](CO)C(=O)N[C@@H](Cc2csc3ccccc23)C(=O)N1C (stereo partly drawn) [Example 10003] ({CH2CO}-Y[NMeA]N[X4]HLPWS[Bta][NMeNle][NMeNle]R[ξC]G-NH2; thioether N-14) | 0.1 to 10 µM | – |
| CCCC[C@H]1C(=O)N(C)[C@@H](CCCC)C(=O)N[C@@H](CCCNC(=N)N)C(=O)NC(C(=O)NCC(N)=O)CSCC(=O)N[C@@H](Cc2ccc(O)cc2)C(=O)N(C)[C@@H](C)C(=O)N[C@@H](CC(N)=O)C(=O)N[C@]2(C[C@@H]2C)C(=O)N[C@@H](Cc2cnc[nH]2)C(=O)N[C@@H](CC(C)C)C(=O)N2C[C@H](O)C[C@H]2C(=O)N[C@@H](Cc2c[nH]c3ccccc23)C(=O)N[C@@H](CO)C(=O)N[C@@H](Cc2csc3ccccc23)C(=O)N1C (stereo partly drawn) [Example 10004] ({CH2CO}-Y[NMeA]N[X4]HL[Hyp]WS[Bta][NMeNle][NMeNle]R[ξC]G-NH2; thioether N-14) | 0.01 to 0.099 µM | – |
| CCCC[C@H]1C(=O)N(C)[C@@H](CCCC)C(=O)N[C@@H](CCCNC(=N)N)C(=O)NC(C(=O)NCC(N)=O)CSCC(=O)N[C@@H](Cc2ccc(O)cc2)C(=O)N(C)[C@@H](C)C(=O)N[C@@H](CC(N)=O)C(=O)N2CCC[C@H]2C(=O)N[C@@H](Cc2cnc[nH]2)C(=O)N[C@@H](CC(C)C)C(=O)NC2(C[C@@H]2C)C(=O)N[C@@H](Cc2c[nH]c3ccccc23)C(=O)N[C@@H](CO)C(=O)N[C@@H](Cc2csc3ccccc23)C(=O)N1C (stereo partly drawn) [Example 10005] ({CH2CO}-Y[NMeA]NPHL[X3]WS[Bta][NMeNle][NMeNle]R[ξC]G-NH2; thioether N-14) | – | IC50 ([1]; numeric values): 1 µM |
| CCCC[C@H]1C(=O)N(C)[C@@H](CCCC)C(=O)N[C@@H](CCCNC(=N)N)C(=O)NC(C(=O)NCC(N)=O)CSCC(=O)N[C@@H](Cc2ccc(O)cc2)C(=O)N(C)[C@@H](C)C(=O)N[C@@H](CC(N)=O)C(=O)N2C[C@H](O)C[C@H]2C(=O)N[C@@H](Cc2cnc[nH]2)C(=O)N[C@@H](CC(C)C)C(=O)NC2(C[C@@H]2C)C(=O)N[C@@H](Cc2c[nH]c3ccccc23)C(=O)N[C@@H](CO)C(=O)N[C@@H](Cc2csc3ccccc23)C(=O)N1C (stereo partly drawn) [Example 10006] ({CH2CO}-Y[NMeA]N[Hyp]HL[X3]WS[Bta][NMeNle][NMeNle]R[ξC]G-NH2; thioether N-14) | 0.1 to 10 µM | – |
| CCCC[C@H]1C(=O)N(C)[C@@H](CCCC)C(=O)N[C@@H](CCCNC(=N)N)C(=O)NC(C(=O)NCC(N)=O)CSCC(=O)N[C@@H](Cc2ccc(O)cc2)C(=O)N(C)[C@@H](C)C(=O)N[C@@H](CC(N)=O)C(=O)N2C[C@H](O)C[C@H]2C(=O)N[C@@H](Cc2cnc[nH]2)C(=O)N[C@@H](CC(C)C)C(=O)NC2(C[C@@H]2C)C(=O)N[C@@H](Cc2c[nH]c3ccccc23)C(=O)N[C@@H](CO)C(=O)N[C@@H](Cc2c[nH]c3ccccc23)C(=O)N1C (stereo partly drawn) [Example 10007] | 0.1 to 10 µM | – |
| CCCC[C@H]1C(=O)N(C)[C@@H](CCCC)C(=O)N[C@@H](CCCNC(=N)N)C(=O)NC(C(=O)NCC(N)=O)CSCC(=O)N[C@@H](Cc2ccc(O)cc2)C(=O)N(C)[C@@H](C)C(=O)N[C@@H](CC(N)=O)C(=O)N[C@]2(C[C@@H]2CC)C(=O)N[C@@H](Cc2cnc[nH]2)C(=O)N[C@@H](CC(C)C)C(=O)N2C[C@H](O)C[C@H]2C(=O)N[C@@H](Cc2c[nH]c3ccccc23)C(=O)N[C@@H](CO)C(=O)N[C@@H](Cc2csc3ccccc23)C(=O)N1C (stereo partly drawn) [Example 10008] ({CH2CO}-Y[NMeA]N[X2]HL[Hyp]WS[Bta][NMeNle][NMeNle]R[ξC]G-NH2; thioether N-14) | 0.01 to 0.099 µM | – |
| CCCC[C@H]1C(=O)N(C)[C@@H](CCCC)C(=O)N[C@@H](CCCNC(=N)N)C(=O)NC(C(=O)NCC(N)=O)CSCC(=O)N[C@@H](Cc2ccc(O)cc2)C(=O)N(C)[C@@H](C)C(=O)N[C@@H](CC(N)=O)C(=O)N[C@]2(C[C@@H]2CC)C(=O)N[C@@H](Cc2cnc[nH]2)C(=O)N[C@@H](CC(C)C)C(=O)N2C[C@H](O)C[C@H]2C(=O)N[C@@H](Cc2c[nH]c3ccccc23)C(=O)N[C@@H](CO)C(=O)N[C@@H](Cc2c[nH]c3ccccc23)C(=O)N1C (stereo partly drawn) [Example 10009] ({CH2CO}-Y[NMeA]N[X2]HL[Hyp]WSW[NMeNle][NMeNle]R[ξC]G-NH2; thioether N-14) | 0.1 to 10 µM | – |
| CCCC[C@H]1C(=O)N(C)[C@@H](CCCC)C(=O)N[C@@H](CCCNC(=N)N)C(=O)NC(C(=O)NCC(N)=O)CSCC(=O)N[C@@H](Cc2ccc(O)cc2)C(=O)N(C)[C@@H](C)C(=O)N[C@@H](CC(N)=O)C(=O)N[C@]2(C[C@@H]2CC)C(=O)N[C@@H](Cc2cnc[nH]2)C(=O)N[C@@H](CC(C)C)C(=O)N2CCC[C@H]2C(=O)N[C@@H](Cc2c[nH]c3ccccc23)C(=O)N[C@@H](CO)C(=O)N[C@@H](Cc2c[nH]c3ccccc23)C(=O)N1C (stereo partly drawn) [Example 10010] ({CH2CO}-Y[NMeA]N[X2]HLPWSW[NMeNle][NMeNle]R[ξC]G-NH2; thioether N-14) | 0.1 to 10 µM | – |
| CCCC1O[C@@H]2C[C@H]3[C@@H]4CCC5=CC(=O)C=C[C@]5(C)[C@H]4[C@@H](O)C[C@]3(C)[C@]2(C(=O)CO)O1 (stereo partly drawn) [budesonide] | – | bioavailability [2]: about 10% |
